PubChem BioAssay (NCI)
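1) Cells in 96-well plates. 2) Compound, 48 h, 5 concentrations. 3) Linear interpolation between surrounding doses. 4) Unreached endpoint = highest concentration. Abbreviation: GI50, concentration required for 50% inhibition of growth. At the TGI there is no net growth.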

Key:
Experiment in all cases: NCI tumour cell line growth inhibition, 48 h
[1] = test system: UACC-257 melanoma
[2] = test system: SNB-19 CNS
[3] = test system: NCI-H522 lung
[4] = test system: ACHN renal
[5] = test system: TK-10 renal
[6] = test system: MDA-N
[7] = test system: RXF 393 renal
[8] = test system: HL-60(TB) leukemia
[9] = test system: NCI-H226 lung
[10] = test system: MALME-3M melanoma

`Cc1ccc(Cc2cc(N3CCN(c4cccc(Cl)c4)CC3)nnc2C)cc1` showed a TGI [1] greater than 100 µM, a TGI [2] greater than 100 µM and a TGI [3] of 81.5 µM. For the same compound, the TGI [4] was greater than 100 µM, the TGI [5] was greater than 100 µM and the TGI [6] was greater than 100 µM. The TGI [7] was greater than 100 µM.

With `O=c1[nH]c(=O)c2ncn(-c3ccc([N+](=O)[O-])cn3)c2[nH]1` the TGI [1] was greater than 100 µM, the TGI [8] was greater than 100 µM and the TGI [2] was greater than 100 µM. The TGI [4] was greater than 100 µM, the TGI [5] was greater than 100 µM and the TGI [9] was greater than 100 µM. It also gave a TGI [7] greater than 100 µM.

Compound `COC(=O)CN(CC(=O)NCCCBr)C1CCCCC1N(CC(=O)OC)CC(=O)OC` (stereo not drawn) has a TGI [1] greater than 100 µM, a TGI [8] greater than 100 µM and a TGI [2] greater than 100 µM. It also gave a TGI [3] greater than 100 µM, a TGI [4] greater than 100 µM and a TGI [5] greater than 100 µM. The TGI [9] was greater than 100 µM and the TGI [6] was greater than 100 µM.

`Cc1cc2c(c(C(=O)NCC(=O)N[C@@H](C)C(=O)OCc3ccccc3)c1)Oc1c(cc(C)cc1C(=O)NCC(=O)N[C@@H](C)C(=O)OCc1ccccc1)S2` showed a TGI [1] greater than 100 µM, a TGI [2] greater than 100 µM and a TGI [10] of 44.2 µM. For the same compound, the TGI [4] was greater than 100 µM, the TGI [9] was greater than 100 µM and the TGI [6] was greater than 100 µM. The TGI [7] was 85.3 µM.

`COc1cccc2c1NC(=O)Cc1c-2[nH]c2ccccc12` gave a TGI [8] greater than 100 µM, a TGI [3] greater than 100 µM and a TGI [10] greater than 100 µM. The TGI [4] was greater than 100 µM, the TGI [5] was greater than 100 µM and the TGI [9] was greater than 100 µM. The TGI [7] was greater than 100 µM.

`COc1cc(CC(C)=O)cc(OC)c1` showed a TGI [1] greater than 100 µM, a TGI [8] of 78.5 µM and a TGI [2] greater than 100 µM. It also gave a TGI [10] greater than 100 µM, a TGI [4] greater than 100 µM and a TGI [5] greater than 100 µM. It also gave a TGI [9] greater than 100 µM and a TGI [6] of 76.9 µM.

`CCc1cc(C)cc2[n+]1CC=C2` was tested, and the TGI [1] was 39.7 µM, the TGI [8] was 12.8 µM and the TGI [2] was greater than 100 µM. The TGI [3] was 51.9 µM, the TGI [10] was 67.5 µM and the TGI [4] was 35.4 µM. The TGI [5] was greater than 100 µM, the TGI [9] was 80.8 µM and the TGI [7] was greater than 100 µM.

Work on `CN(C)CN1CSC(=S)N(CN(C)C)C1` yielded a TGI [1] greater than 100 µM, a TGI [2] greater than 100 µM and a TGI [3] greater than 100 µM. It also gave a TGI [10] greater than 100 µM, a TGI [4] greater than 100 µM and a TGI [5] greater than 100 µM. It also gave a TGI [9] greater than 100 µM, a TGI [6] greater than 100 µM and a TGI [7] greater than 100 µM.

`C/C=C1/CN2CCC34c5ccccc5N(C)C23C2CC1C4(C(=O)OC)C(OC(C)=O)O2` (stereo not drawn) showed a TGI [1] greater than 100 µM, a TGI [8] greater than 100 µM and a TGI [2] greater than 100 µM. The TGI [3] was greater than 100 µM, the TGI [4] was greater than 100 µM and the TGI [5] was greater than 100 µM. For the same compound, the TGI [9] was greater than 100 µM and the TGI [6] was greater than 100 µM.

In the case of `COc1ccccc1NC(=S)N=Nc1c(O)[nH]c2ccccc12`, the TGI [1] is reported as greater than 100 µM, the TGI [2] is reported as greater than 100 µM and the TGI [3] is reported as greater than 100 µM. It also gave a TGI [10] greater than 100 µM, a TGI [4] greater than 100 µM and a TGI [5] greater than 100 µM. The TGI [9] was greater than 100 µM, the TGI [6] was greater than 100 µM and the TGI [7] was greater than 100 µM.

In the case of `COc1ccc2c(c1)Oc1cc(O)ccc1[C@H]2c1ccccc1C(=O)NC(C)c1ccccc1` (stereo partly drawn), the TGI [1] is reported as 37.3 µM, the TGI [8] is reported as 44.1 µM and the TGI [2] is reported as 33 µM. For the same compound, the TGI [3] was 28 µM, the TGI [10] was 46.2 µM and the TGI [4] was 29.8 µM. The TGI [5] was 50.4 µM, the TGI [9] was 38.8 µM and the TGI [7] was 42 µM.

`COC(C/C(=C/CO[Si](C(C)C)(C(C)C)C(C)C)C(=O)N(C(=O)OC(C)(C)C)c1ccccc1I)OC` showed a TGI [1] greater than 100 µM, a TGI [2] greater than 100 µM and a TGI [3] of 18.3 µM. For the same compound, the TGI [4] was greater than 100 µM, the TGI [5] was greater than 100 µM and the TGI [9] was greater than 100 µM. For the same compound, the TGI [6] was greater than 100 µM.

`O=C(c1ccccc1)N1CCN(C(=S)NC2CCCCC2)C1=S` gave a TGI [1] of 38.6 µM, a TGI [8] of 50.3 µM and a TGI [3] of 30.6 µM. For the same compound, the TGI [10] was 32.1 µM, the TGI [4] was 58 µM and the TGI [5] was 62 µM. For the same compound, the TGI [9] was 36.1 µM and the TGI [6] was 42.8 µM.

`COc1cccc2c1C(=O)c1c(O)c3c(c(O)c1C2=O)C[C@@](O)(C(C)=O)CC3S(=O)(=O)O` (stereo partly drawn) gave a TGI [1] greater than 100 µM, a TGI [8] greater than 100 µM and a TGI [2] greater than 100 µM. The TGI [3] was greater than 100 µM, the TGI [10] was greater than 100 µM and the TGI [4] was greater than 100 µM. It also gave a TGI [5] greater than 100 µM, a TGI [9] greater than 100 µM and a TGI [7] greater than 100 µM.

For `Nc1nc(NCCOCP(=O)(O)O)c([N+](=O)[O-])c(=O)[nH]1`, the TGI [1] was greater than 100 µM, the TGI [8] was greater than 100 µM and the TGI [2] was greater than 100 µM. The TGI [3] was greater than 100 µM, the TGI [10] was greater than 100 µM and the TGI [4] was greater than 100 µM. The TGI [5] was greater than 100 µM, the TGI [9] was greater than 100 µM and the TGI [7] was greater than 100 µM.

Compound `CSc1cc(Cl)c(C)cc1S(=O)(=O)NC(=O)NNc1ccc(F)cc1` has a TGI [2] greater than 100 µM, a TGI [3] greater than 100 µM and a TGI [10] greater than 100 µM. The TGI [4] was greater than 100 µM, the TGI [9] was greater than 100 µM and the TGI [6] was greater than 100 µM. It also gave a TGI [7] greater than 100 µM.

With `O=C1c2ccccc2C(=O)N1n1c(Cc2ccc(Cl)cc2)n[nH]c1=O` the TGI [1] was greater than 100 µM, the TGI [2] was greater than 100 µM and the TGI [10] was greater than 100 µM. It also gave a TGI [4] greater than 100 µM, a TGI [5] greater than 100 µM and a TGI [9] greater than 100 µM. The TGI [6] was greater than 100 µM.

Compound `COc1ccc2c(c1)N(Cc1ccc(Cl)cc1)CCC2N1CCCC1=O` (stereo not drawn) has a GI50 [1] of 3.07 µM, a TGI [1] of 11.2 µM and a GI50 [8] of 5.34 µM. The TGI [8] was 24.9 µM, the GI50 [2] was 4.3 µM and the TGI [2] was 51.7 µM. The GI50 [3] was 4.33 µM, the TGI [3] was 35.8 µM and the GI50 [10] was 3.99 µM. The TGI [10] was 27.2 µM, the GI50 [4] was 4.85 µM and the TGI [4] was 88.2 µM. The GI50 [5] was 6.98 µM, the TGI [5] was 60.9 µM and the GI50 [9] was 2.89 µM. It also gave a TGI [9] of 34.5 µM, a GI50 [7] of 2.77 µM and a TGI [7] of 10.9 µM.
